Laboratory results: patent US20090318555A1, “Treatment of Vertigo with Acetyl-L-Leucine” (PIERRE FABRE MEDICAMENT, priority 2006, published 2009)

Columns and labels:
[1] = system: postural and kinetic deficit compensation in lesioned cat; conditions: both after IV 28 mg/kg first three days post-lesion and after (IO) 28 mg/kg first 30 days postoperative, vs untreated lesioned animals; cited from earlier work
[2] = system: unilateral vestibular neurectomy model in the cat; test: Post-lesion horizontal spontaneous vestibular nystagmus, Example 1; assay type: in vivo; conditions: for nystagmus disappearing / nystagmus frequency compared to control animals: 15 mg/kg/day IV 3 days then 30 mg/kg/day oral
Protocol: The cats undergo a unilateral vestibular neurectomy on the left side. Surgery is performed using a surgical microscope, under rigorously aseptic conditions, according to a translabyrinthine approach. After incision of the tissues located behind the left auricle of the animal, an opening is made in the tympanic bulla using a diamond drill to give access to the inner ear. The labyrinth cavity is approached by an opening created above the oval window. This precisely-made opening exposes cranial […] which are sectioned at the postganglionic level. The internal auditory meatus is obturated with a cicatrizing gelatin sponge and the surface tissues are restitched. The animals are given analgesics for 48 hours and antibiotics for five days postoperative. The animals are divided into four groups comprising three treatment groups and one untreated control group, as follows: • control group (five cats), untreated after vestibular lesion but receiving a placebo, • experimental group one (four cats), treated with the racemic compound (acetyl-DL-leucine), • experimental group two (four cats), treated with the first enantiomer (acetyl-L-leucine), • experimental group three (four cats), treated with the second enantiomer (acetyl-D-leucine). Pharmacological treatments for experimental groups one, two and three begin on the day of the lesion and continue until complete recovery (45 days for untreated control animals). In these three lesioned groups, treatment is administered by intravenous (IV) route during the first three days post-lesion and is followed by oral route (OR) treatment until recovery is complete. The doses administered are 30 mg/kg/day IV then 60 mg/kg/day OR for the racemate, and 15 mg/kg/day IV then 30 mg/kg/day OR for each of the two enantiomers. For the oral route, the substance is mixed with food; for the IV route, injection takes place after local anesthesia. Recovery of oculomotor functioning is quantified by measuring post-operative regression of spontaneous vestibular nystagmus to light. This nystagmus is recorded in the horizontal plane by a video camera system that records eye movements (SIMI system). Nystagmus frequency is determined by the number of beats per unit time (10 seconds). Recordings are made daily until spontaneous nystagmus disappears.

[3] = system: unilateral vestibular neurectomy model in the cat; test: Support polygon surface area (postural syndrome), Example 1; assay type: in vivo; conditions: for return of support polygon surface area to normal / support polygon surface area compared to control animals: 15 mg/kg/day IV 3 days then 30 mg/kg/day oral; for support polygon surface area compared to control animals: post-lesion (D isomer: two days post-lesion and evolution)
Protocol: The cats undergo a unilateral vestibular neurectomy on the left side. Surgery is performed using a surgical microscope, under rigorously aseptic conditions, according to a translabyrinthine approach. After incision of the tissues located behind the left auricle of the animal, an opening is made in the tympanic bulla using a diamond drill to give access to the inner ear. The labyrinth cavity is approached by an opening created above the oval window. This precisely-made opening exposes cranial […] which are sectioned at the postganglionic level. The internal auditory meatus is obturated with a cicatrizing gelatin sponge and the surface tissues are restitched. The animals are given analgesics for 48 hours and antibiotics for five days postoperative. The animals are divided into four groups comprising three treatment groups and one untreated control group, as follows: • control group (five cats), untreated after vestibular lesion but receiving a placebo, • experimental group one (four cats), treated with the racemic compound (acetyl-DL-leucine), • experimental group two (four cats), treated with the first enantiomer (acetyl-L-leucine), • experimental group three (four cats), treated with the second enantiomer (acetyl-D-leucine). Pharmacological treatments for experimental groups one, two and three begin on the day of the lesion and continue until complete recovery (45 days for untreated control animals). In these three lesioned groups, treatment is administered by intravenous (IV) route during the first three days post-lesion and is followed by oral route (OR) treatment until recovery is complete. The doses administered are 30 mg/kg/day IV then 60 mg/kg/day OR for the racemate, and 15 mg/kg/day IV then 30 mg/kg/day OR for each of the two enantiomers. For the oral route, the substance is mixed with food; for the IV route, injection takes place after local anesthesia. Support polygon surface area is a good indicator of the degree of postural stability in the cat. In general, it is quite small in the normal animal (roughly 50 cm^2). It increases considerably, by four to eight times, after a unilateral vestibular lesion. This increase in polygon surface area reflects tonic asymmetries in the extensor and flexor muscles of the fore and hind feet and the loss of certain static equilibrium reflexes (Magnus reflexes, for example). Thus, postoperative evolution of this indicator is a good measure of the animal's static equilibrium capacity. In addition, this indicator has prognostic value with respect to dynamic equilibrium performance, as measured by the rotating beam test. Support polygon surface area measurements are taken with the animal in an upright position on all four legs, at rest, using an automated three-dimensional movement analysis system with virtual markers (Codamotion optoelectronic system coupled with a SIMI alignment device). Surface area measurements (in cm^2) taken during the post-lesion period are standardized with respect to pre-lesion values. Thus, each animal acts as its own control (unit equivalent). This method enables direct between-group comparisons and within-group averaging.

[4] = system: unilateral vestibular neurectomy model; test: Overall functional restoration in animals having undergone unilateral vestibular neurectomy; assay type: in vivo, cat; conditions: present experimental model
Excerpt: The selected experimental model and protocol are recognized in the field of neurosensory research as targeting the study of disorders associated with vertigo crises. The cats undergo a unilateral vestibular neurectomy on the left side. The animals are divided into four groups comprising three treatment groups and one untreated control group, as follows: • control group (five cats), untreated after vestibular lesion but receiving a placebo, • experimental group one (four cats), treated with the racemic compound (acetyl-DL-leucine), • experimental group two (four cats), treated with the first enantiomer (acetyl-L-leucine), • experimental group three (four cats), treated with the second enantiomer (acetyl-D-leucine). Pharmacological treatments for experimental groups one, two and three begin on the day of the lesion and continue until complete recovery (45 days for untreated control animals). In these three lesioned groups, treatment is administered by intravenous (IV) route during the first three days post-lesion and is followed by oral route (OR) treatment until recovery is complete. The doses administered are 30 mg/kg/day IV then 60 mg/kg/day OR for the racemate, and 15 mg/kg/day IV then 30 mg/kg/day OR for each of the two enantiomers. For the oral route, the substance is mixed with food; for the IV route, injection takes place after local anesthesia.

[5] = system: unilateral vestibular neurectomy model in the cat; test: Kinetic equilibrium functioning, rotating beam test, Example 1; assay type: in vivo; conditions: for compensation for kinetic equilibrium compared to control animals / return to maximum performance (MP): rotating beam, 15 mg/kg/day IV 3 days then 30 mg/kg/day oral
Protocol: The cats undergo a unilateral vestibular neurectomy on the left side.
Surgery is performed using a surgical microscope, under rigorously aseptic conditions, according to a translabyrinthine approach. After incision of the tissues located behind the left auricle of the animal, an opening is made in the tympanic bulla using a diamond drill to give access to the inner ear. The labyrinth cavity is approached by an opening created above the oval window. This precisely-made opening exposes cranial […] which are sectioned at the postganglionic level. The internal auditory meatus is obturated with a cicatrizing gelatin sponge and the surface tissues are restitched. The animals are given analgesics for 48 hours and antibiotics for five days postoperative.
The animals are divided into four groups comprising three treatment groups and one untreated control group, as follows: • control group (five cats), untreated after vestibular lesion but receiving a placebo, • experimental group one (four cats), treated with the racemic compound (acetyl-DL-leucine), • experimental group two (four cats), treated with the first enantiomer (acetyl-L-leucine), • experimental group three (four cats), treated with the second enantiomer (acetyl-D-leucine).
Pharmacological treatments for experimental groups one, two and three begin on the day of the lesion and continue until complete recovery (45 days for untreated control animals). In these three lesioned groups, treatment is administered by intravenous (IV) route during the first three days post-lesion and is followed by oral route (OR) treatment until recovery is complete. The doses administered are 30 mg/kg/day IV then 60 mg/kg/day OR for the racemate, and 15 mg/kg/day IV then 30 mg/kg/day OR for each of the two enantiomers. For the oral route, the substance is mixed with food; for the IV route, injection takes place after local anesthesia.
The rotating beam test, as described by Xerri and Lacour (Xerri C, Lacour M: Compensation for postural and kinetic deficits following unilateral vestibular neurectomy in the cat. Role of sensory-motor activity [Compensation des déficits posturaux et cinétiqtues après neurectomie vestibulaire unilatérale chez le chat. Rôle de l'activité sensori-motrice], Acta Otolaryngol (Stockh) (1980) [in French], 90, 414-424) makes it possible to quantify kinetic equilibrium functioning deficits and recovery as a function of postoperative time.
Two compartments are connected by a cylindrical beam 3 m in length and 12 cm in diameter, placed 1.2 m above the floor. The beam can turn around its central axis with linear tangential velocities varying from 0 m/min to 37 m/min. Before the unilateral vestibular lesion (preoperative period), the cats are conditioned to move along this beam. Their maximum performance (MP), which corresponds to the highest beam rotation velocity not causing the animal to fall, is determined for four consecutive tests. In general, eight to 12 daily training sessions of approximately one hour are adequate for the animal to reach its MP. Inter-animal MP variations are relatively small (extreme values recorded: 27 m/min to 37 m/min; mean: 33 m/min; standard deviation: 2.08 m/min). For each cat, MP values obtained following unilateral vestibular neurectomy are expressed as a percentage of MP recorded at the end of training during the preoperative period.

[6] = system: unilateral vestibular neurectomy in the cat; test: Compensation of vestibular deficits (support polygon), Example 2; assay type: in vivo; conditions: IV during first three days post-lesion
Protocol: The experiment involves 18 cats from the breeder IFA-CREDO (France). The cats undergo a unilateral vestibular neurectomy of the left side, as in example 1. The animals are divided into three groups comprising one group treated with racemic coumpound (acetyl-DL-leucine) (groups 1) and two treated with acetyl-L-leucine (groups 2 and 3), as follows: • experimental group one (six cats), treated after vestibular lesion with the racemic compound (acetyl-DL-leucine) at 30 mg/kg per day, • experimental group two (six cats), treated after vestibular lesion with the L enantiomer (acetyl-L-leucine) at 15 mg/kg per day, • experimental group three (six cats), treated after vestibular lesion with the L enantiomer (acetyl-L-leucine) at 7.5 mg/kg per day, Pharmacological treatments for experimental groups 1 to 3 begin on the day of the lesion. Treatment is administered by intravenous (IV) route during the first three days post-lesion.

[7] = cat, 15 mg/kg/day IV then 30 mg/kg/day oral
[8] = acetyl-L-leucine used in a 1/2 dose of the racemate

Row | SMILES | shortening of the vestibular compensation time constant [1] [%] | nystagmus disappearing ([2]; cat) | nystagmus frequency compared to control animals ([2]; cat) | beneficial effect on nystagmus parameter [2, 7] | return of support polygon surface area to normal ([3]; cat) [days post-lesion] | support polygon surface area compared to control animals ([3]; cat) | beneficial effect on support polygon parameter [3, 7] | improvement / restorative activity compared to placebo [4] | beneficial effect on kinetic equilibrium parameter [5, 7] | compensation for kinetic equilibrium compared to control animals ([5]; cat) | return to maximum performance (MP) ([5]; cat) [days post-lesion] | restoration of postural, locomotor and oculomotor functions deteriorated by a vestibular lesion [6] | activity on compensation for ocular nystagmus relative to acetyl-DL-leucine [2, 8] | activity on compensation for postural deficits relative to acetyl-DL-leucine [3, 8] | activity on compensation for kinetic equilibrium relative to acetyl-DL-leucine [5, 8]
1 | CC(=O)NC(CC(C)C)C(=O)O (racemic) [acetyl-DL-leucine] | 50 | – | – | – | – | – | – | – | – | – | – | – | – | – | –
2 | CC(=O)N[C@H](CC(C)C)C(=O)O [acetyl-D-leucine] | – | eight | identical to that of nystagmus observed in the control animals | does not have any beneficial effect | 40 | identical to that observed in the control animals | does not have any beneficial effect | does not provide any improvement compared to a placebo | does not have any beneficial effect | identical to that observed in the control animals | 42 | – | – | – | –
3 | CC(=O)N[C@@H](CC(C)C)C(=O)O [acetyl-L-leucine] | – | four | lower | – | 16 | significantly smaller | – | restorative activity is only provided by the acetyl-L-leucine isomer | – | much more rapid than in the control animals | 18 | efficiently restore | greater than or equal to that of acetyl-DL-leucine | greater than or equal to that of acetyl-DL-leucine | greater than or equal to that of acetyl-DL-leucine
